In PubChem BioAssay (NCI) one finds TGI data, which are given here for eleven compounds.

Test systems include M19-MEL melanoma; SNB-78 CNS; XF 498 CNS; RXF-631 renal; MDA-N; MDA-MB-231 breast; SN12K1 renal.
Common to all, as to experiment: NCI anticancer screen, dose series, 48 h

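These data come from cells grown in 96-well plates and exposed to compound for 48 hours at five concentrations. TGI: total growth inhibition.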

For `C[P+](C)(C)C`, the TGI with M19-MEL melanoma, with SNB-78 CNS, with XF 498 CNS and with RXF-631 renal was more than 100 µM in each case.

`c1ccc(CN2CCc3[nH]c4ccccc4c3C2)cc1`: the TGI in the test with M19-MEL melanoma was more than 82.1 µM; in the test on MDA-N it was 44 µM; in the test with SNB-78 CNS, more than 100 µM; in the test with XF 498 CNS it was 68.6 µM; with RXF-631 renal, 38.5 µM; with MDA-MB-231 breast it was 48.9 µM. The compound further came in with a TGI with SN12K1 renal of 29.1 µM.

Regarding `O=C1CC(c2c(-c3ccccc3)[nH]c3ccccc23)C(=O)N1c1ccccc1` (configuration not stated), the TGI in the test with M19-MEL melanoma, with SNB-78 CNS, in the test with XF 498 CNS and in the test on RXF-631 renal was more than 100 µM throughout.

In the case of `O=c1c2ccccc2[nH]c2c(O)ccc(O)c12`, the TGI with M19-MEL melanoma amounted to 63.6 µM; in the test with SNB-78 CNS, 39.6 µM; in the test with XF 498 CNS it was 30.9 µM; in the test on RXF-631 renal, 51.5 µM.

For `C/C(=N\NC(=O)C[N+](C)(C)C)c1sc(-c2cccnc2)nc1C`, the TGI with M19-MEL melanoma, in the test on SNB-78 CNS, in the test on XF 498 CNS and with RXF-631 renal was more than 100 µM in each case.

As to `N#Cc1ccc(/C=C(/C(=O)c2ccccc2)c2ccccc2)cc1`, the TGI turned out to be 31.8 µM with M19-MEL melanoma, 14.3 µM in the test with SNB-78 CNS, 16.4 µM with XF 498 CNS and 29.8 µM in the test with RXF-631 renal.

Turning to `CCOC(=O)C1C=C2O[C@@H]3OC4(CCCCC4)O[C@@H]3C2C2C(=O)CCC(=O)[C@@]12C(=O)OC` (some centres not stated), the TGI in the test on M19-MEL melanoma, in the test with SNB-78 CNS, in the test with XF 498 CNS and in the test on RXF-631 renal was more than 100 µM throughout.

`CCc1cccc(C(C)C)c1NC(=O)CCl`: the TGI is more than 100 µM in the test on M19-MEL melanoma, more than 100 µM in the test with SNB-78 CNS, more than 100 µM with XF 498 CNS and 37.4 µM with RXF-631 renal.

`C/C(=N\NC(N)=S)c1ccc(C)c(C)c1`: the TGI is more than 100 µM with M19-MEL melanoma, more than 100 µM with SNB-78 CNS, 48.1 µM with XF 498 CNS and more than 100 µM in the test on RXF-631 renal.

As to `CC1=CC(C)(c2c[nH]c3ccccc23)CC(C)(C)c2c1[nH]c1ccccc21` (configuration not stated), the TGI is 43.7 µM in the test with M19-MEL melanoma, more than 100 µM with SNB-78 CNS, 72.1 µM with XF 498 CNS and 31.8 µM with RXF-631 renal.

For the compound `CN(C)CCC(/C=C/c1ccccc1)=N\Nc1ccc(Cl)c(Cl)c1`, the TGI is 15 µM in the test on M19-MEL melanoma, 15.4 µM in the test with SNB-78 CNS, 7.23 µM with XF 498 CNS and 6.73 µM in the test with RXF-631 renal.
